Test results as given in patent US6890952B2, “Cyclic substituted aminomethyl compounds and medicaments comprising these compounds” (Gruenenthal GmbH, priority 2000, dated 2005).

How the values were obtained:
[1] = test system: phenylquinone-induced writhing reactions; assay: phenylquinone-induced writhing test in mice; format: in vivo, mouse
Protocol: The antinociceptive activity of the compounds according to the invention was investigated in mice in the phenylquinone-induced writhing test, modified by I. C. Hendershot, J. Forsaith, J. Pharmacol. Exp. Ther. 125, 237-240 (1959). Male NMRI mice weighing 25-30 g were employed for this. Groups of 10 animals per substance dose received 0.3 ml/mouse of a 0.02% aqueous solution of phenylquinone (phenylbenzoquinone, Sigma, Deisenhofen; preparation of the solution with the addition of 5% ethanol and storage in a water bath at 45° C.) administered intraperitoneally 10 minutes after intravenous administration of a compound according to the invention. The animals were placed individually in observation cages. The number of pain-induced stretching movements (so-called writhing reactions=straightening of the body with stretching of the hind extremities) was counted by means of a push-button counter for 5-20 minutes after the administration of phenylquinone.
The ED50 values of the writhing reaction were calculated by means of regression analysis (evaluation program, Martens EDV Service, Eckental) from the dose-dependent decrease in writhing reactions compared with animal groups investigated in parallel to which no compound according to the invention was administered.
The majority of the substances were tested in the standard dose of 10 mg/kg. The percentage inhibition (% inhibition) of the writhing reactions by a substance was then calculated according to the following equation: [formula] The results are summarized in table 1 for selected compounds.

[2] = male NMRI mice, standard dose of 10 mg/kg

Row | SMILES | melting point | Writhing test, mouse, i.v. decrease in writhing reactions (% inhibition) [1, 2] [%] | further results
1 | CN(C)CC1=C(Cc2ccc(Cl)cc2)c2ccc(O)cc2CC1.Cl | 110 °C (dec.) |  | 
2 | CN(C)CC1=C(Cc2ccc(Cl)cc2Cl)c2ccccc2CC1.Cl | 208 to 209 °C |  | 
3 | CN(C)CC1=C(Cc2ccc(Cl)cc2)c2ccccc2CCC1.Cl | 240 to 243 °C |  | 
4 | CN(C)CC1CCCc2ccccc2/C1=C/c1ccc(Cl)cc1.Cl (racemic) [Example 4e, E-(5RS)-[5-(4-Chlorobenzylidene)-6,7,8,9-tetrahydro-5H-benzocyclohepten-6-ylmethyl]-dimethylamine hydrochloride] |  | 69 | 
5 | CN(C)CC1CCOc2ccccc2/C1=C/c1cccc(O)c1.Cl (racemic) [Example 6b, E-(4RS)3-(4-Dimethylaminomethyl-3,4-dihydro-2H-benzo[b]oxepin-5-ylidene-methyl)-phenol hydrochloride] |  |  | Writhing test, mouse, i.v. decrease in writhing reactions (% inhibition) ([1]; male NMRI mice, dose 21.5 mg/kg as printed in table 1): 91% [21.5 mg/kg]; inhibition of writhing reactions ([1]; mouse, i.v., dose of 2.15 mg/kg body weight as printed in text): 91%
6 | CN(C)CC1CCOc2ccccc2/C1=C\c1cccc(O)c1.Cl (racemic) [Example 6c, Z-(4RS)3-(4-Dimethylaminomethyl-3,4-dihydro-2H-benzo[b]oxepin-5-ylidene-methyl)-phenol hydrochloride] |  | 78 | 
7 | CN(C)CC1CCOc2ccccc2/C1=C\c1ccc(Cl)cc1.Cl (racemic) [Example 7c, Z-(4RS) [5-(4-Chlorobenzylidene)-2,3,4,5-tetrahydro-benzo[b]oxepin-4-yl-methyl]-dimethylamine hydrochloride] |  | 79 | 
8 | CN(C)CC1=C(Cc2ccc(Cl)cc2)c2ccccc2CC1.Cl [Example 2] |  | 61.5 | Writhing test, mouse, i.v. ED50 ([1]; male NMRI mice, 10 minutes before phenylquinone i.p.): 6.85 mg/kg
9 | CN(C)CC1=C(Cc2cccc(O)c2)c2ccccc2CC1.Cl [Example 3, 3-(2-Dimethylaminomethyl-3,4-dihydro-naphth-1-ylmethyl)-phenol hydrochloride] |  | 93 | 
10 | CN(C)CC1=C(Cc2ccc(Cl)cc2)c2cccc(O)c2CC1.Cl [Example 4c, 5-(4-Chlorobenzyl)-6-dimethylaminomethyl-7,8-dihydro-naphth-1-ol hydrochloride] | 136 to 139 °C | 84 | 
11 | CN(C)CC1=C(Cc2cccc(O)c2)c2ccccc2OCC1.Cl [Example 6a, 3-(4-Dimethylaminomethyl-2,3-dihydro-benzo[b]oxepin-5-ylmethyl)-phenol hydrochloride] |  | 95 | 
